This note sets out measurements from ChEMBL document CHEMBL4190316, “Synthesis and biological evaluation of 4-biphenylamino-5-halo-2(5H)-furanones as potential anticancer agents” (Eur J Med Chem, 2017).

For one series, the system named is CNE. Put plainly: Cytotoxicity against human CNE1 cells assessed as reduction in cell viability after 72 hrs by MTT assay. In kind it is functional, cell-based. (Tetrazolium dyes change colour on reduction, which living cells bring about.)
In the next series the test system is C6. Put plainly: Cytotoxicity against rat C6 cells assessed as reduction in cell viability after 72 hrs by MTT assay. In kind it is functional, cell-based. The conditions noted are these: C6, 72 h.
Series [1] in a line: Octanol-water partition coefficient, log P of the compound at 10 mM after 24 hrs by UV-vis spectroscopic method. It is filed as physicochemical.
The next series relates to HepG2. Put plainly: Cytotoxicity against human HepG2 cells assessed as reduction in cell viability after 72 hrs by MTT assay. It is filed as functional, cell-based. The conditions noted are these: HepG2, 72 h.
For a further series, the system named is MDA-MB-231. Put plainly: Cytotoxicity against human MDA-MB-231 cells assessed as reduction in cell viability after 72 hrs by MTT assay. The conditions noted are these: MDA-MB-231, 72 h. In kind it is functional, cell-based.
The subject of another series is HaCaT. Put plainly: Cytotoxicity against human HaCaT cells assessed as reduction in cell viability after 72 hrs by MTT assay. In kind it is cell-based.
The next series relates to MCF7. The experiment in a line: Cytotoxicity against human MCF7 cells assessed as reduction in cell viability after 72 hrs by MTT assay. It is filed as functional, cell-based. The conditions noted are these: MCF7, 72 h.
Series [2] is described as follows: Cytotoxicity against human NCI-EC1 cells assessed as reduction in cell viability after 72 hrs by MTT assay. It is filed as functional, cell-based.
The subject of series [3] is Quadruplex DNA. The experiment in a line: Binding affinity to c-Myc G-quadruplex DNA (unknown origin) at 20 uM incubated for 2 mins by fluorescence emission spectra method. It is filed as nucleic-acid assay.
Series [4] has as its system Quadruplex DNA. Put plainly: Binding affinity to c-Myc G-quadruplex DNA (unknown origin) assessed as hypochromism at 20 uM incubated for 3 mins by electronic absorption spectra method. In kind it is nucleic-acid assay.
Series [5] concerns Quadruplex DNA. The experiment in a line: Binding affinity to c-Myc G-quadruplex DNA (unknown origin) at 20 uM incubated for 3 mins by electronic absorption spectra method. In kind it is nucleic-acid assay.
The test system of series [6] is Quadruplex DNA. Put plainly: Effect on conformation of c-Myc G-quadruplex DNA (unknown origin) at 1 mM measured every 3 mins by CD spectroscopic analysis. In kind it is nucleic-acid assay.

Molecules are shown by their SMILES. pIC50: −log10 of the molar value. Active and inactive are the calls of the source. The calls are words filed in the database; no cut-off is given here.

What is called pIC50 is the negative decadic logarithm of the IC50, by convention in mol/L. In general, logP refers to the decadic logarithm of the partition coefficient of the neutral form, usually between octanol and water. A high value points to a more lipophilic compound. As to `CCOC1OC(=O)C(Cl)=C1Nc1ccc(-c2ccc(N)cc2)cc1` (stereo not given), the pIC50 with CNE is less than 4.00; in the series with C6, 4.30; in the series with HepG2, less than 4.00; in the series on MDA-MB-231 it was 4.42; in the series with HaCaT, 4.35; in the series on MCF7 it was less than 4.00. In addition, the logP at 24 h, 10000 µM in series [1] was 1.64.
Turning to `CCOC1OC(=O)C(Br)=C1Nc1ccc(-c2ccccc2)cc1` (stereo not given), the pIC50 was 4.38 in the series with CNE; 4.26 in [2]; 4.56 in the series with C6; 4.46 in the series on HepG2; 4.15 in the series with MDA-MB-231; 4.29 in the series on HaCaT. Besides, the pIC50 with MCF7 is 4.33. In [1], the lipophilicity (logP) at 24 h, 10000 µM was 1.74.
With `COC1OC(=O)C(Br)=C1Nc1ccc(-c2ccc(N)cc2)cc1` (stereo not given), the pIC50 is 4.16 in the series on CNE; less than 4.00 in series [2]; 4.19 in the series on C6; 4.08 with HepG2; less than 4.00 in the series with MDA-MB-231; 4.16 with HaCaT. Besides, in the series with MCF7, the pIC50 is 4.22. This compound also yielded a logP at 24 h, 10000 µM in series [1] of 1.46.
In the case of `COC1OC(=O)C(Cl)=C1Nc1ccc(-c2ccccc2)cc1` (stereo not given), the negative-log IC50 (pIC50) in the series on CNE was 4.27; in series [2] it was 4.49; in the series with C6 it was 4.44; in the series with HepG2, 4.45; in the series with MDA-MB-231 it was 4.18; in the series on HaCaT, 4.39. Also, the pIC50 with MCF7 was 4.39. The same compound displayed a logP at 24 h, 10000 µM in [1] of 1.5.
`COC1OC(=O)C(Br)=C1Nc1ccc(-c2ccccc2)cc1` (stereo not given): the pIC50 was 4.28 with CNE; 4.32 in series [2]; 4.42 in the series on C6; 4.34 in the series on HepG2; 4.01 in the series on MDA-MB-231; 4.17 with HaCaT. In the series on MCF7, the pIC50 was 4.42. In series [1], the logP at 24 h, 10000 µM was determined as 1.33.
Consider `CC(=O)OC1OC(=O)C(Br)=C1Nc1ccc(-c2ccccc2)cc1` (stereo not given), for which the pIC50 in the series on CNE is 4.09; in series [2], 4.46; with C6, 4.35; in the series with HepG2, 4.56; in the series on MDA-MB-231, 4.22; in the series on HaCaT, 4.04. In addition, in the series on MCF7, the pIC50 was 4.43. The outcome in the series with Quadruplex DNA [3] was Active. The same compound had a logP at 24 h, 10000 µM in [1] of 1.31. The Activity in the series on Quadruplex DNA [4] came out at 17%. For the same compound, the K in the series with Quadruplex DNA [5] was determined as 9.4 ×10⁶ /M. Besides, the result in the series on Quadruplex DNA [6] was inactive.
Consider `CCOC1OC(=O)C(Cl)=C1Nc1ccc(-c2ccccc2)cc1` (stereo not given), for which the pIC50 in the series on CNE is 4.33; in series [2] it was 4.25; in the series with C6 it was 4.32; in the series on HepG2, 4.40; in the series with MDA-MB-231, 4.41; in the series with HaCaT it was 4.30. The negative-log IC50 (pIC50) in the series with MCF7 is 4.35. In series [1], this compound gave a logP at 24 h, 10000 µM of 1.33.
`CCOC1OC(=O)C(Br)=C1Nc1ccc(-c2ccc(N)cc2)cc1` (stereo not given): the pIC50 in the series on CNE was 4.05; in [2], 4.08; in the series on C6 it was 4.24; with HepG2 it was 4.25; with MDA-MB-231, 4.31; with HaCaT it was 4.15. In addition, in the series on MCF7, the negative-log IC50 (pIC50) is 4.24. In series [1], this compound displayed a logP at 24 h, 10000 µM of 1.58.
For the compound `COC1OC(=O)C(Cl)=C1Nc1ccc(-c2ccc(N)cc2)cc1` (stereo not given), the pIC50 in the series on CNE is less than 4.00; in [2], less than 4.00; with C6, 4.19; in the series on HepG2, less than 4.00; in the series with MDA-MB-231, less than 4.00; in the series on HaCaT, less than 4.00. In addition, in the series with MCF7, the pIC50 was less than 4.00. In [1], the logP at 24 h, 10000 µM amounted to 0.913.
